Results published in PubChem BioAssay AID330 (DTP/NCI, 2004).
Several values for one entry are separate records, joined by “and”; a condition that tells them apart may be missing. Identical values can stand only once. Toxic doses and inconclusive results are not listed.

Test system: P388 leukemia ip, CD2F1 mice, survival T/C
Experiment: NCI In Vivo Anticancer Drug Screen. Data for tumor model P388 Leukemia (intraperitoneal) in CD2F1 (CDF1) mice
Details: endpoint: median survival time, higher = longer survival
In short: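 Mice carrying the transplanted tumor received test compound or vehicle. Survival was recorded in each group, and the value is the treated-group measurement divided by that of the vehicle-treated control group.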

[1] = dose: 12.5 mg/kg/injection, schedule: Q04DX002 (ip), vehicle: saline with Tween-80
[2] = dose: 25.0 mg/kg/injection, schedule: Q04DX002 (ip), vehicle: saline with Tween-80
[3] = dose: 50.0 mg/kg/injection, schedule: Q04DX002 (ip), vehicle: saline with Tween-80
[4] = dose: 50.0 mg/kg/injection, schedule: Q01DX009 (ip), vehicle: saline with Tween-80
[5] = dose: 100.0 mg/kg/injection, schedule: Q01DX009 (ip), vehicle: saline with Tween-80
[6] = dose: 200.0 mg/kg/injection, schedule: Q01DX009 (ip), vehicle: saline with Tween-80
[7] = dose: 12.5 mg/kg/injection, schedule: Q01DX005 (ip), vehicle: saline with Tween-80
[8] = dose: 25.0 mg/kg/injection, schedule: Q01DX005 (ip), vehicle: saline with Tween-80
[9] = dose: 50.0 mg/kg/injection, schedule: Q01DX005 (ip), vehicle: saline with Tween-80
[10] = dose: 50.0 mg/kg/injection, schedule: Q01DX005 (ip), vehicle: Klucel (hydroxypropylcellulose) (HPC)
[11] = dose: 100.0 mg/kg/injection, schedule: Q01DX005 (ip), vehicle: Klucel (hydroxypropylcellulose) (HPC)
[12] = dose: 200.0 mg/kg/injection, schedule: Q01DX005 (ip), vehicle: Klucel (hydroxypropylcellulose) (HPC)
[13] = dose: 100.0 mg/kg/injection, schedule: Q01DX005 (ip), vehicle: saline with Tween-80
[14] = dose: 200.0 mg/kg/injection, schedule: Q01DX005 (ip), vehicle: saline with Tween-80

With `O=NN(CCF)C(=O)NC1CCS(=O)(=O)CC1` the T/C (dose: 1.25 mg/kg/injection, schedule: Q04DX003 (ip), vehicle: saline) was 177 % of control, the T/C (dose: 2.5 mg/kg/injection, schedule: Q01DX009 (ip), vehicle: saline) was 220 % of control and the T/C (dose: 2.5 mg/kg/injection, schedule: Q04DX003 (ip), vehicle: saline) was 250 % of control. For the same molecule, the T/C (dose: 5.0 mg/kg/injection, schedule: Q01DX009 (ip), vehicle: saline) was 300 % of control, the T/C (dose: 5.0 mg/kg/injection, schedule: Q04DX003 (ip), vehicle: saline with Tween-80) was 240 % of control and the T/C (dose: 5.0 mg/kg/injection, schedule: Q04DX003 (ip), vehicle: saline) was 272 % of control. The T/C (dose: 6.6 mg/kg/injection, schedule: Q04DX003 (ip), vehicle: saline with Tween-80) was 280 % of control, the T/C (dose: 10.0 mg/kg/injection, schedule: Q01DX009 (ip), vehicle: saline) was 300 % of control and the T/C (dose: 10.0 mg/kg/injection, schedule: Q04DX003 (ip), vehicle: saline with Tween-80) was 272 % of control and 285 % of control. The T/C (dose: 15.0 mg/kg/injection, schedule: Q04DX003 (ip), vehicle: saline with Tween-80) was 285 % of control.
In the case of `C=C1C(=O)OC2CC1C(O)C/C(C)=C/CC/C(C)=C/CCC2(C)O` (configuration not stated), the T/C (dose: 2.0 mg/kg/injection, schedule: Q01DX009 (ip), vehicle: Klucel (hydroxypropylcellulose) (HPC)) is reported as 110 % of control, the T/C (dose: 4.0 mg/kg/injection, schedule: Q01DX009 (ip), vehicle: Klucel (hydroxypropylcellulose) (HPC)) is reported as 110 % of control and the T/C (dose: 8.0 mg/kg/injection, schedule: Q01DX009 (ip), vehicle: Klucel (hydroxypropylcellulose) (HPC)) is reported as 122 % of control and 92 % of control. The T/C (dose: 16.0 mg/kg/injection, schedule: Q01DX009 (ip), vehicle: Klucel (hydroxypropylcellulose) (HPC)) was 105 % of control and 114 % of control and the T/C (dose: 32.0 mg/kg/injection, schedule: Q01DX009 (ip), vehicle: Klucel (hydroxypropylcellulose) (HPC)) was 106 % of control and 107 % of control.
For `C[C@H]1O[C@H](C)[C@H](O)C2=C1C(=O)c1ccccc1C2=O`, the T/C [1] was 100 % of control and 95 % of control, the T/C [2] was 99 % of control and 100 % of control and 96 % of control and the T/C [3] was 99 % of control and 110 % of control and 94 % of control.
In the case of `O=NN(Cc1cccnc1)C(=O)NC1CCCCC1`, the T/C (dose: 25.0 mg/kg/injection, schedule: Q01DX001 (ip), vehicle: distilled water + Tween-80) is reported as 109 % of control, the T/C (dose: 50.0 mg/kg/injection, schedule: Q01DX001 (ip), vehicle: distilled water + Tween-80) is reported as 98 % of control and the T/C (dose: 100.0 mg/kg/injection, schedule: Q01DX001 (ip), vehicle: distilled water + Tween-80) is reported as 100 % of control.
With `COc1cccc2c1C(=N)c1c(O)c3c(c(O)c1C2=O)CC(O)(C(=O)CO)CC3OC1CC(N2CCOCC2)C(O)C(C)O1` (configuration not stated) the T/C (dose: 0.13 mg/kg/injection, schedule: Q04DX003 (ip), vehicle: water) was 101 % of control and 104 % of control and 98 % of control, the T/C (dose: 0.25 mg/kg/injection, schedule: Q04DX003 (ip), vehicle: water) was 101 % of control and 108 % of control and 116 % of control and the T/C (dose: 0.5 mg/kg/injection, schedule: Q04DX003 (ip), vehicle: water) was 104 % of control and 107 % of control. For the same molecule, the T/C (dose: 0.78 mg/kg/injection, schedule: Q04DX003 (ip), vehicle: distilled water + Tween-80) was 105 % of control, the T/C (dose: 1.0 mg/kg/injection, schedule: Q04DX003 (ip), vehicle: water) was 99 % of control and 104 % of control and 107 % of control and the T/C (dose: 1.56 mg/kg/injection, schedule: Q04DX003 (ip), vehicle: distilled water + Tween-80) was 101 % of control. For the same molecule, the T/C (dose: 3.12 mg/kg/injection, schedule: Q04DX003 (ip), vehicle: distilled water + Tween-80) was 99 % of control.
For `CC(C)N(C(=S)/N=C1/SC(C)S(=O)(=O)N1C)C(C)C` (configuration not stated), the T/C (dose: 25.0 mg/kg/injection, schedule: Q01DX009 (ip), vehicle: saline with Tween-80) was 117 % of control, the T/C [4] was 97 % of control and the T/C [5] was 100 % of control.
With `Nc1cc(N)c(Nc2ccccc2)cc1Nc1ccccc1` the T/C (dose: 100.0 mg/kg/injection, schedule: Q01DX001 (ip), vehicle: Klucel (hydroxypropylcellulose) (HPC)) was 99 % of control, the T/C (dose: 200.0 mg/kg/injection, schedule: Q01DX001 (ip), vehicle: Klucel (hydroxypropylcellulose) (HPC)) was 101 % of control and the T/C (dose: 400.0 mg/kg/injection, schedule: Q01DX001 (ip), vehicle: Klucel (hydroxypropylcellulose) (HPC)) was 97 % of control.
In the case of `C[N+](C)(C)/N=C(\[O-])Nc1ccccc1`, the T/C [4] is reported as 100 % of control, the T/C [5] is reported as 104 % of control and the T/C [6] is reported as 89 % of control.
With `Cc1cccc(NCc2ccncc2)n1` the T/C (dose: 6.25 mg/kg/injection, schedule: Q01DX005 (ip), vehicle: saline with Tween-80) was 92 % of control, the T/C [7] was 102 % of control and the T/C [8] was 100 % of control. For the same molecule, the T/C [9] was 100 % of control.
`CC1(C)OC2(C)CCC1C1C2N1C(=O)c1ccccc1` (configuration not stated) was tested, and the T/C [10] was 94 % of control, the T/C [11] was 102 % of control and the T/C [12] was 102 % of control.
`O=C1CN(c2ccc(Cl)cc2)C(=O)CN1/N=C/c1ccco1` was tested, and the T/C [9] was 103 % of control, the T/C [13] was 107 % of control and the T/C [14] was 100 % of control.
In the case of `CC[n+]1c(/C=C/c2ccc(N(CCC(=O)O)CCC(=O)O)cc2)ccc2ccccc21`, the T/C [1] is reported as 100 % of control, the T/C [2] is reported as 106 % of control and the T/C [3] is reported as 106 % of control.
`C=C1OC(CC(C)C)=C(C(=O)OC(C)(C)C)C1C` (configuration not stated) was tested, and the T/C (dose: 100.0 mg/kg/injection, schedule: Q01DX001 (ip), vehicle: saline with Tween-80) was 99 % of control, the T/C (dose: 200.0 mg/kg/injection, schedule: Q01DX001 (ip), vehicle: saline with Tween-80) was 99 % of control and the T/C (dose: 400.0 mg/kg/injection, schedule: Q01DX001 (ip), vehicle: saline with Tween-80) was 100 % of control.
`CC[C@@H]1O[C@@H]([C@@H]2CC[C@](O)([C@]3(C)CC[C@@H]([C@@H](C)[C@@]4(O)CC[C@H](C)[C@@H](C[C@@]5(O)O[C@@H]([C@@H](C)[C@H](O)C[C@H]6CC[C@H](C)[C@@H]([C@@H](C)C(=O)O)O6)CC[C@@H]5C)O4)O3)O2)CC[C@@]1(C)O` was tested, and the T/C (dose: 0.12 mg/kg/injection, schedule: Q01DX009 (ip), vehicle: saline with Tween-80) was 109 % of control and the T/C (dose: 0.25 mg/kg/injection, schedule: Q01DX009 (ip), vehicle: saline with Tween-80) was 111 % of control.
`CCn1c2ccccc2c2cc(N=Cc3cccc([N+](=O)[O-])c3)ccc21` was tested, and the T/C [4] was 97 % of control, the T/C [5] was 98 % of control and the T/C [6] was 88 % of control.
In the case of `O=[N+]([O-])C(CO)(CO)CC(F)(F)F`, the T/C (dose: 6.25 mg/kg/injection, schedule: Q04DX003 (ip), vehicle: saline) is reported as 100 % of control.
In the case of `O=C1CSC(c2ccoc2)N1N1C(=O)CSC1c1ccoc1` (configuration not stated), the T/C [9] is reported as 90 % of control, the T/C [13] is reported as 87 % of control and the T/C [14] is reported as 90 % of control.
`O=C(O)CCNC(Cc1ccc(O)cc1)C(=O)O` (configuration not stated) was tested, and the T/C [10] was 96 % of control, the T/C [11] was 102 % of control and the T/C [12] was 103 % of control.
For `CC(C)c1ccc(C[n+]2ccccc2/C=N/O)cc1`, the T/C [7] was 100 % of control, the T/C [8] was 95 % of control and the T/C [9] was 103 % of control.
For `Cc1ccc2ccccc2c1N(CC(=O)O)S(=O)(=O)c1ccccc1` (tested in a mixture with another compound), the T/C (dose: 12.5 mg/kg/injection, schedule: Q01DX001 (ip), vehicle: saline with Tween-80) was 110 % of control, the T/C (dose: 25.0 mg/kg/injection, schedule: Q01DX001 (ip), vehicle: saline with Tween-80) was 105 % of control and the T/C (dose: 50.0 mg/kg/injection, schedule: Q01DX001 (ip), vehicle: saline with Tween-80) was 110 % of control.
For `C1C2CC3C1C1OC3C21`, the T/C (dose: 60.0 mg/kg/injection, schedule: Q01DX005 (ip), vehicle: Klucel (hydroxypropylcellulose) (HPC)) was 100 % of control, the T/C (dose: 120.0 mg/kg/injection, schedule: Q01DX005 (ip), vehicle: Klucel (hydroxypropylcellulose) (HPC)) was 99 % of control and the T/C (dose: 240.0 mg/kg/injection, schedule: Q01DX005 (ip), vehicle: Klucel (hydroxypropylcellulose) (HPC)) was 100 % of control.
In the case of `CCCCCCCCCCCCCCCCCCCCC(C(=O)OCC)S(=O)(=O)O` (configuration not stated), the T/C (dose: 50.0 mg/kg/injection, schedule: Q01DX009 (ip), vehicle: Klucel (hydroxypropylcellulose) (HPC)) is reported as 116 % of control and the T/C (dose: 100.0 mg/kg/injection, schedule: Q01DX009 (ip), vehicle: Klucel (hydroxypropylcellulose) (HPC)) is reported as 111 % of control.
For `N#CC(C(=O)C(N)=O)c1nc2ccccc2s1` (configuration not stated), the T/C [9] was 105 % of control and the T/C [13] was 101 % of control.
In the case of `COC(=O)/C=C/CCO`, the T/C [4] is reported as 111 % of control, the T/C [5] is reported as 95 % of control and the T/C [6] is reported as 108 % of control.
For `ClC1CC(C(Cl)(Cl)Cl)CCC1C(Cl)(Cl)Cl` (configuration not stated), the T/C [9] was 98 % of control, the T/C [13] was 96 % of control and the T/C [14] was 96 % of control.
For `O=C(O)c1cscn1`, the T/C (dose: 60.0 mg/kg/injection, schedule: Q01DX005 (ip), vehicle: saline) was 100 % of control, the T/C (dose: 120.0 mg/kg/injection, schedule: Q01DX005 (ip), vehicle: saline) was 97 % of control and the T/C (dose: 240.0 mg/kg/injection, schedule: Q01DX005 (ip), vehicle: saline) was 113 % of control.
